pIC50: −log10 of the molar value.
Tests used:
[1] = tested on: voltage-gated sodium channels; test: Antagonism of veratridine-stimulated Na+ influx in neocortical neurons (SBFI); assay type: cell-based, Swiss-Webster mice; settings: for pIC50: primary mouse neocortical neurons, three-parameter logistic fit
Method: (§1) Primary cultures of neocortical neurons were obtained from embryonic day 16 Swiss-Webster mice as described elsewhere. Briefly, pregnant mice were euthanized by CO2 asphyxiation and embryos were removed under sterile conditions. Neocortices were collected, stripped of meninges, minced by trituration with a Pasteur pipette, and treated with trypsin for 25 min at 37°C. The cells were then dissociated by two successive trituration and sedimentation steps in soybean trypsin inhibitor and DNase containing isolation buffer, centrifuged, and resuspended in Eagle’s minimal essential medium with Earle’s salt (MEM) and supplemented with 1 mM L-glutamine, 10% fetal bovine serum, 10% horse serum, 100 IU/mL penicillin, and 0.10 mg/mL streptomycin (pH 7.4). Cells were plated onto poly-L-lysine-coated 96-well (9 mm), clear-bottomed, black-well culture plates (MidSci, St. Louis, USA) at a density of 1.5 × 10^5 cells/well. Cells were then incubated at 37°C in a 5% CO2 and 95% humidity atmosphere. The culture media was changed every other day, starting from day 5 in-vitro using a serum-free growth medium containing Neurobasal Medium supplemented with B-27, 100 IU/mL penicillin, 0.10 mg/mL streptomycin, and 0.2 mM L-glutamine. Neocortical cultures were used in experiments between 10–11 days in-vitro. All animal use protocols were approved by the Institutional Animal Care and Use Committee (IACUC) of Creighton University.
[Na^+]i measurement and full in-situ calibration of sodium-binding benzofuran isophthalate (SBFI) fluorescence ratio were performed as described previously. Cells grown in 96-well plates were washed four times with Locke's buffer using an automated microplate washer (BioTek Instruments, Winooski, VT). After measuring the background fluorescence of each well, cells were incubated for 1 h at 37°C with dye-loading buffer (100 μL/well) containing 10 μM SBFI-AM (Invitrogen) and 0.02% Pluronic F-127 (Invitrogen). Cells were washed five times with Locke's buffer, leaving a final volume of 150 μL in each well. Jamaicamide addition and preincubation was as described above for Ca^2+ concentration determination. […] Fluorescence readings were taken once every 5 s for 60 s to establish the baseline, then either vehicle (control) or veratridine was added and fluorescence was monitored for an additional 260 s. After correcting for background fluorescence, SBFI fluorescence ratios (340/380) and concentration-response graphs were generated.
(§2) The Fluo-3 and SBFI raw fluorescence emission data were exported to an Excel work sheet. The Fluo-3 fluorescence or SBFI fluorescence ratios (340/380) versus time were analyzed and concentration-response graphs generated using GraphPad Prism software (GraphPad Software Inc., San Diego, CA).

[2] = tested on: veratridine-stimulated Ca2+ influx in neocortical neurons; test: Antagonism of veratridine-stimulated Ca2+ influx in neocortical neurons (fluo-3); assay type: cell-based, Swiss-Webster mice; settings: for pIC50: Neuron, primary mouse neocortical neurons, three-parameter logistic fit
Method: as §1
Cells grown in 96-well plates were used for determination of intracellular Ca^2+ concentration ([Ca^2+]i). Briefly, the growth medium was removed and replaced with dye-loading medium (100 μL per well) containing 4 μM fluo-3 AM and 0.04% pluronic acid in Locke's buffer. […] The cells were incubated in the presence or absence of jamaicamides for 5–7 minutes at 37°C in a 5% CO2 and 95% humidity atmosphere prior to transfer to a FLEX Station II (Molecular Devices) benchtop scanning fluorescence chamber. The fluorescence measurements were performed at 37°C. The cells were excited at 488 nm and Ca^2+-bound fluo-3 emission was recorded at 538 nm at 2 s intervals. After recording baseline fluorescence for 60 s, either vehicle or veratridine was added to each well at a rate of 26 μL/s; the fluorescence was then monitored for an additional 200 s.
as §2

sodium channel = settings: at a concentration of 5 μM, Neuro-2a cells; cited from earlier work
[3] = tested on: human carcinoma of the nasopharynx (KB) cell line; set-up: method as in PMID 15974628; settings: cited from earlier work
[4] = tested on: human small cell lung cancer (NCI-H187) cell line; set-up: method as in PMID 15974628; settings: cited from earlier work
actin = tested on: actin; set-up: method as in PMID 12088429; settings: cited from earlier work

| SMILES | pIC50 [1] | pIC50 [2] | Potency relative to the other two jamaicamides as a sodium channel blocker (Na+ influx) ([1]; versus 3 and 12, neocortical neurons) | Sodium channel blocking activity (sodium channel) | Potency relative to the other two jamaicamides tested (Ca2+ influx) ([2]; versus 3 and 12) | LD50 [3] [µM] | LD50 [4] [µM] | Effect on actin polymerization (actin) |
| --- | --- | --- | --- | --- | --- | --- | --- | --- |
| COC(=CC(=O)N1C(=O)C=CC1C)CCNC(=O)CCC=CC(C)CCC(=CCl)CCCC#CI (stereo not drawn) [compound 12, jamaicamide F] | 5.64 | 5.37 |  |  |  |  |  |  |
| CO/C(=C/C(=O)N1C(=O)C=C[C@@H]1C)CCNC(=O)CC/C=C/C(C)CC/C(=C/Cl)CCCC#CBr (stereo partly drawn) [compound 2, jamaicamide A] | 5.96 | 5.74 | 2-3 times | sodium channel blocking activity | 2–3 times |  |  |  |
| CC1C(=O)OC(C(C)(C)O)c2nc(cs2)C(=O)OC(C)(C)C(O)c2nc(cs2)C(=O)OC1CCCC(C)(Cl)Cl (stereo not drawn) [compound 5, Hectochlorin B] |  |  |  |  |  | 0.31 | 0.32 |  |
| CC(=O)O[C@@H]1c2nc(cs2)C(=O)O[C@@H](CCCC(C)(Cl)Cl)[C@H](C)C(=O)O[C@@H](C(C)(C)O)c2nc(cs2)C(=O)OC1(C)C [compound 1, hectochlorin] |  |  |  |  |  | 0.86 | 1.20 | enhances actin polymerization |
| C#CCCC/C(=C\Cl)CCC(C)/C=C/CCC(=O)NCC/C(=C\C(=O)N1C(=O)C=C[C@@H]1C)OC (stereo partly drawn) [compound 3, jamaicamide B] | 5.44 | 5.16 |  | sodium channel blocking activity |  |  |  |  |
